Data on two compounds can be found in article PMC3628605, “Glucose-6-phosphate dehydrogenase regulation in the hepatopancreas of the anoxia-tolerant marine mollusc, Littorina littorea” (PeerJ, 2013).

As usually defined, the Km is the substrate concentration at which the rate is half of its maximum.

For assay [1], the system named is T1, G6PDH, hepatopancreas, 24 h anoxic (low phosphate form).
T1 construct: gene G6PD; native enzyme in Sephadex G-50 filtered hepatopancreas extract of 24 h anoxic snails; low phosphate form, same gene product as P1; not purified for kinetics
The assay can be described thus: spectrophotometric NADPH production at […] nm. Format: biochemical, Littorina littorea. The settings on record: pH 8.0, 50 mM Tris-HCl, 22 °C.

For assay [2], the system named is T2, G6PDH, hepatopancreas, aerobic control (high phosphate form).
T2 construct: gene G6PD; native enzyme in Sephadex G-50 filtered hepatopancreas extract of aerobic control snails (bought at Kowloon Market, Ottawa); serine-phosphorylated, high phosphate form; not purified for kinetics
The assay can be described thus: spectrophotometric NADPH production at […] nm. The following applies: pH 8.0, 50 mM Tris-HCl, 22 °C. Format: biochemical, Littorina littorea.

As to `O=P(O)(O)OC[C@H]1OC(O)[C@H](O)[C@@H](O)[C@@H]1O` (stereo partly shown) [G6P], the values for the Michaelis-Menten constant (Km) in assay [1] (optimal NADP+ (1.0 mM)) and in assay [2] (optimal NADP+ (1.0 mM)) were 60 ± 3 µM and 97 ± 6 µM, respectively.

For the compound `NC(=O)c1ccc[n+]([C@@H]2O[C@H](COP(=O)(O)OP(=O)(O)OC[C@H]3O[C@@H](n4cnc5c(N)ncnc54)[C@H](OP(=O)(O)O)[C@@H]3O)[C@@H](O)[C@H]2O)c1` [NADP^+], the Michaelis constant (Km) in assay [1] (optimal G6P (4 mM)) was found to be 115 ± 8 µM; in assay [2] (optimal G6P (4 mM)), 117 ± 6 µM.
